Results published in patent publication US20210060158A1, “AGONIST OF ARYL HYDROCARBON RECEPTOR FOR USE IN CANCER COMBINATION THERAPY” (INSTITUT CURIE, priority 2017, published 2021).

Experiments:
[1] = tested on: dermal mo-DC and MHC class II+ macrophages; experiment: Skin mo-DC and macrophage proportions in mice fed I3C-supplemented diet; format: in vivo, mouse; details: supplemented diet versus control diet
Text: FIG. 4: AhR is involved in mo-DC differentiation in vivo in the mouse. (A-C) Ear skin from individual AhR^-/- mice or WT littermates (A-B), or C57BL/6 mice fed with an experimental diet supplemented or not with indole-3-carbinol […]) (C), was digested to prepare single-cell suspensions. After gating on live CD45^+CD3^-NK1.1^-CD19^-Ly6G^-CD24^- CD11b^+ cells, cells were separated into 5 subsets based on the expression of Ly6C, CD64, MHC II and CCR2. (A) One representative AhR^-/- and WT mouse is shown. (B-C) Proportions of monocytes, early mo-DC, mo-DC, MHC II^+ macrophages and resident MHC II^- macrophages among Ly6C^+ or CD64^+ cells. Each symbol represents an individual mouse (B n=9 in 2 independent experiments, C n=12 in 2 independent experiments).*p<0.05, **p<0.01. (D-E) Cells from the peritoneal lavage were analyzed by flow cytometry. After gating on live CD115^+CD11b^+ cells, cells were separated into MHCII^+CD226^+ cells and ICAM2^+MHCII^- cells. (D) Cell-sorted cells were analyzed after cytospin and Giemsa/May-Grünwald staining. Bar=10 μm. Representative of 2 independent experiments. (E) C57BL/6 mice fed with an experimental diet supplemented or not with […], and treated or not with a cocktail of antibiotics. […] To address the physiological relevance of our findings, we analyzed the role of AhR in mo-DC and mo-Mac differentiation in vivo in the mouse. […]

peritoneal mo-DC = experiment: Peritoneal MHCII+CD226+ mo-DC in antibiotics-treated mice fed I3C-supplemented or control diet; format: in vivo, mouse; details: I3C-supplemented versus control diet, peritoneal lavage
Text: FIG. 4: AhR is involved in mo-DC differentiation in vivo in the mouse. (A-C) Ear skin from individual AhR^-/- mice or WT littermates (A-B), or C57BL/6 mice fed with an experimental diet supplemented or not with indole-3-carbinol […]) (C), was digested to prepare single-cell suspensions. After gating on live CD45^+CD3^-NK1.1^-CD19^-Ly6G^-CD24^- CD11b^+ cells, cells were separated into 5 subsets based on the expression of Ly6C, CD64, MHC II and CCR2. (A) One representative AhR^-/- and WT mouse is shown. (B-C) Proportions of monocytes, early mo-DC, mo-DC, MHC II^+ macrophages and resident MHC II^- macrophages among Ly6C^+ or CD64^+ cells. Each symbol represents an individual mouse (B n=9 in 2 independent experiments, C n=12 in 2 independent experiments).*p<0.05, **p<0.01. (D-E) Cells from the peritoneal lavage were analyzed by flow cytometry. After gating on live CD115^+CD11b^+ cells, cells were separated into MHCII^+CD226^+ cells and ICAM2^+MHCII^- cells. (D) Cell-sorted cells were analyzed after cytospin and Giemsa/May-Grünwald staining. Bar=10 μm. Representative of 2 independent experiments. […] To address whether the decrease of peritoneal mo-DC upon antibiotics treatment was AhR-dependent, we fed antibiotics-treated mice with a […]-supplemented or control diet, and analyzed cells from the peritoneal lavage (FIG. 3E).

Treg cells = experiment: Induction of functional Treg cells upon administration
Text: The impact of a given AHR agonist on Treg cells may be estimated by exposing purified T cells (typically CD4^+ T cells) in vitro with the said agonist. Treg cells are characterized by expression of the transcription factor Foxp3.

[2] = tested on: IRF4 expression in CD14+ monocytes; experiment: IRF4 and MAFB expression in monocytes after 3 h of culture, RT-qPCR; format: cell-based, human; details: 3 h culture, with IL-4 (FICZ: with IL-4 and TNF-α)
Protocol: (§1) FIG. 2: AHR is a molecular switch for mo-DC versus mo-Mac differentiation. (A-B) CD14^+ monocytes were infected at day 0 with lentivirus containing sh RNA against AHR, or control sh RNA. After 5 days of culture, cells were analyzed by Immuno Blot (A) or by flow cytometry (B). (A) Silencing quantified based on Immuno Blot stainings. (B) Proportions of DC and macrophages in the culture at day 5. Each symbol represents an individual donor (n=6 in 3 independent experiments). *p<0.05. (C) Monocytes were cultured with MCSF, IL-4 and TNF-α for 5 days, in the presence of various concentrations of FICZ (AHR agonist) or SR1 (AHR inhibitor). Proportions of DC and macrophages at day 5. […] (D-E) CD14^+ monocytes were analyzed directly after isolation, or were cultured for 3h in medium alone or with various combinations of MCSF, IL-4, TNF-α, FICZ or SRI. (D) Relative expression of IRF4 and MAFB measured by RT-qPCR. […] (E) Expression of IRF4 and MAFB at the single cell level was measured by fluorescent in situ hybridization coupled to flow cytometry. […]
To decipher how AHR shapes monocyte fate, we assessed IRF4 and MAFB expression in monocytes after 3 h of culture with various combinations of M-CSF, IL-4, TNF-α, SR1 and FICZ (FIG. 2D). We also analyzed the expression of CYP1A1, a known direct target of AHR (Stockinger et al., 2014), as a control for AHR activation. […]

CD14+ monocytes = experiment: Human CD14+ monocyte differentiation into mo-DC versus mo-Mac (culture with M-CSF, IL-4 and TNF-α, flow cytometry at day 5); format: cell-based; details: monocytes cultured with M-CSF, IL-4 and TNF-α for 5 days, various doses of compound
Protocol: as §1
FIG. 3: AHR acts on mo-DC differentiation through BLIMP-1. […] PRDM1 expression measured by RT-qPCR. […] Total cells were lyzed at different days and analyzed by Immuno Blot. […] After 5 days of culture, cells were analyzed by Immuno Blot (C) or by flow cytometry (D-E). (C) Silencing quantified based on Immuno Blot stainings. […]

Row | SMILES | MHC class II+ macrophages in the skin [1] | mo-DC in the skin [1] | peritoneal mo-DC differentiation in antibiotics-treated mice (peritoneal mo-DC) | induction of functional Treg cells (Treg cells) | IL-4-induced IRF4 expression [2] | mo-DC development / proportions at day 5 (CD14+ monocytes) | mo-Mac development / proportions at day 5 (CD14+ monocytes)
1 | OCc1c[nH]c2ccccc12 [I3C, indole-3-carbinol] | decreased | significantly increased | restored mo-DC differentiation in antibiotics-treated mice almost up to normal proportions | does not induce functional Treg cells | – | – | –
2 | CC(C)n1cnc2c(NCCc3ccc(O)cc3)nc(-c3csc4ccccc34)nc21 [SR1, stemregenin-1] | – | – | – | – | inhibited | decreasing | increased
